PubChem BioAssay (NCI)
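Values below derive from 48-hour exposures of cells grown in 96-well plates, with endpoints linearly interpolated between the two concentrations bracketing the appropriate inhibition level. GI50 is the concentration that inhibits growth by half. TGI: concentration producing complete growth inhibition.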

What was measured:
Assay in all cases: NCI tumour cell line growth inhibition, 48 h
UACC-257 melanoma = test system: UACC-257 melanoma
CAKI-1 renal = test system: CAKI-1 renal
KM12 colon = test system: KM12 colon
HS 578T breast = test system: HS 578T breast
DU-145 prostate = test system: DU-145 prostate
COLO 205 colon = test system: COLO 205 colon
NCI-H522 lung = test system: NCI-H522 lung
PC-3 prostate = test system: PC-3 prostate
ACHN renal = test system: ACHN renal
SN12C renal = test system: SN12C renal
NCI-H226 lung = test system: NCI-H226 lung
HL-60(TB) leukemia = test system: HL-60(TB) leukemia

Row | Structure (SMILES) | TGI (UACC-257 melanoma) [µM] | GI50 (CAKI-1 renal) [µM] | TGI (CAKI-1 renal) [µM] | GI50 (KM12 colon) [µM] | TGI (KM12 colon) [µM] | GI50 (HS 578T breast) [µM] | TGI (HS 578T breast) [µM] | TGI (DU-145 prostate) [µM] | TGI (COLO 205 colon) [µM] | GI50 (NCI-H522 lung) [µM] | TGI (NCI-H522 lung) [µM] | TGI (PC-3 prostate) [µM] | GI50 (ACHN renal) [µM] | TGI (ACHN renal) [µM] | TGI (SN12C renal) [µM] | GI50 (NCI-H226 lung) [µM] | TGI (NCI-H226 lung) [µM] | GI50 (HL-60(TB) leukemia) [µM] | TGI (HL-60(TB) leukemia) [µM]
1 | NS(=O)(=O)c1ccc(/C=C/c2cccc(O)c2)cc1 | > 100 | 50.2 | > 100 | 35.4 | > 100 | 61 | > 100 | > 100 | 45.9 | 12.2 | 44.4 | > 100 | 25.8 | 99.6 | > 100 | 25.8 | 74.3 | 41.4 | > 100
2 | CC(=O)Oc1ccc2c(c1)CC[C@@H]1C2[C@@H](O[N+](=O)[O-])C[C@@]2(C)C1CC[C@@H]2O (stereo partly drawn) | > 100 | – | > 100 | – | > 100 | – | 51.1 | > 87.2 | > 88.7 | – | > 86.7 | > 100 | – | > 100 | > 100 | – | > 100 | – | 34.4
3 | COC(=O)C(Cc1ccccc1)NC(=O)CNC(=O)CSc1nnc(COc2ccc(Cl)cc2)n1-c1ccccc1 (stereo not drawn) | 28.8 | – | 25.3 | – | 35.2 | – | 70.4 | 33 | 31.9 | – | 5.45 | 31.3 | – | 27.2 | 32.5 | – | 36.5 | – | 13.7
4 | C/C(=N/O)c1cccc(Nc2nc3ccccc3c3[nH]c4ccccc4c23)c1 | 17.6 | – | 6.89 | – | 9.92 | – | 21.4 | 5.59 | 7.1 | – | 4.4 | 8.05 | – | 7.17 | 13.4 | – | 21 | – | 8.23
5 | COc1cccc(C2c3cc4c(cc3OC(N3CCOCC3)C2C)OCO4)c1O (stereo not drawn) | > 83.3 | – | 18.6 | – | 46.9 | – | 6.39 | 26.6 | 22.7 | – | 8.39 | > 58.6 | – | 72 | 60.5 | – | 20.9 | – | 6.69
6 | NC1CCC(c2cc3ccccc3s2)(N2CCCCC2)CC1 (stereo not drawn) | 3.44 | – | 10.1 | – | 3.78 | – | 20.5 | 16.4 | 3.19 | – | 4.15 | 3.59 | – | 12.5 | 3.1 | – | 43.7 | – | 4.58
7 | CN(C)CCOc1ccc(-c2c(Oc3ccc(Cl)cc3)c(=O)oc3ccccc23)cc1 | – | – | 39.6 | – | 48.1 | – | 24.8 | 45.5 | > 39 | – | 20.9 | 30.1 | – | > 48.5 | > 43.6 | – | > 53.9 | – | > 100
8 | CC1CC[C@]2(C(=O)O)CCC3(C)C(=C2[C@H]1C)C=CC1[C@@]2(C)CC[C@H](O)C(C)(C)C2CC[C@]13C (stereo partly drawn) | > 100 | – | 84.1 | – | > 100 | – | > 100 | 42.4 | > 100 | – | > 100 | 80.1 | – | 48.2 | > 100 | – | > 100 | – | > 100
9 | O=C(CSc1nc2ccc(I)cc2c(=O)n1Cc1ccccc1)Nc1ccc(Br)cc1 | – | – | 20.2 | – | > 100 | – | 62.7 | > 100 | > 100 | – | > 100 | 58.6 | – | > 100 | > 100 | – | > 100 | – | > 100
